Laboratory results taken from patent publication US8937072B2, “Substituted cyanoaniline compounds, preparation and use thereof” (Sinochem Corporation, priority 2011, dated 2015).
Where two headings read alike, the source gives them in different places.

Tests used:
cucumber downy mildew = assay: Protectant activity in vivo (whole plant) against cucumber downy mildew; conditions: Cucumis sativus, 168 h; for pest or weed control at 12.5 µg/mL: 12.5 mg/L
Procedure, shortened: (§1)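 Compound stock in organic solvent (≤5% v/v) diluted in water with 0.1% Tween-80 and sprayed onto whole host plants. Fungal inoculation 24 h later; humidity chamber then greenhouse as the pathogen requires. Activity rated visually, usually after 7 days.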

wheat powdery mildew = assay: Protectant activity in vivo (whole plant) against wheat powdery mildew; conditions: Triticum aestivum, 168 h; dose 400 mg/L
Protocol: The method is as followed: The whole plant is used in this test. The compound is dissolved in a proper solvent to get mother solution. The proper solvent is selected from acetone, methanol, DMF and so on according to their dissolving capability to the sample. The volume rate of solvent and testing solution (v/v) is equal to or less than 5%. The mother solution is diluted with water containing 0.1% tween-80 to get the testing solution whose concentration is designed. The testing solution is sprayed to the host plant by a special plant sprayer. The plant is inoculated with fungus after 24 hours. According to the infecting characteristic of fungus, the plant is stored in a humidity chamber and then transferred into greenhouse after infection is finished. And the other plants are placed in greenhouse directly. The activity of compound is obtained by eyeballing after 7 days in common.

cucumber gray mold = assay: Activity in vitro (96-well, High Through Put): inhibition rate against cucumber gray mold; type: cell-based; conditions: for inhibition at 0.3 µg/mL: 0.3 mg/L; for inhibition at 0.9 µg/mL: 0.9 mg/L; for inhibition at 2.8 µg/mL: 2.8 mg/L
Procedure, shortened: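 Compound in acetone, methanol or DMF was combined with pathogen suspension under sterile conditions and held in a constant-temperature box. After 24 hours germination or growth was scored by eye against an untreated control to give the inhibition rate.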

pear scab = conditions: in vivo; cited from earlier work
canker of citrus fruit = conditions: at 500 ppm; cited from earlier work
blast of rice = conditions: at 500 ppm; cited from earlier work
rice blast = assay: microbe, parasite or virus in culture; type: cell-based; conditions: Pyricularia oryzae; for inhibition at 0.03 µg/mL: read-out: the inhibition rate against rice blast (%) 0.03 mg/L; for inhibition at 0.1 µg/mL: read-out: the inhibition rate against rice blast (%) 0.1 mg/L; for inhibition at 0.3 µg/mL: read-out: the inhibition rate against rice blast (%) 0.3 mg/L
corn rust = assay: Protectant activity in vivo (whole plant) against corn rust; conditions: Zea mays, 168 h; for pest or weed control at 6.25 µg/mL: 6.25 mg/L; for pest or weed control at 25 µg/mL: 25 mg/L; for pest or weed control at 100 µg/mL: 100 mg/L
Procedure, shortened: as §1

plasmopora viticola = conditions: at high dose; cited from earlier work
[1] = 25 mg/L, read-out: the protectant activity (%) against cucumber downy mildew
[2] = 50 mg/L, read-out: the protectant activity (%) against cucumber downy mildew
[3] = 100 mg/L, read-out: the protectant activity (%) against cucumber downy mildew
[4] = dose 25 mg/L, read-out: protectant activity against cucumber downy mildew in vivo
[5] = dose 50 mg/L, read-out: protectant activity against cucumber downy mildew in vivo
[6] = dose 100 mg/L, read-out: protectant activity against cucumber downy mildew in vivo
[7] = read-out: the inhibition rate against cucumber gray mold (%)
[8] = 8.3 mg/L, read-out: the inhibition rate against cucumber gray mold (%)
[9] = in vitro, dose 8.3 mg/L, read-out: inhibition rate against cucumber gray mold
[10] = 400 mg/L, read-out: the protectant activity (%) against corn rust
[11] = dose 400 mg/L, read-out: protectant activity against corn rust in vivo

Compound | pest or weed control at 12.5 µg/mL (cucumber downy mildew) | pest or weed control at 25 µg/mL (cucumber downy mildew; [1]) | pest or weed control at 50 µg/mL (cucumber downy mildew; [2]) | pest or weed control at 100 µg/mL (cucumber downy mildew; [3]) | pest or weed control at 25 µg/mL (cucumber downy mildew; [4]) | pest or weed control at 50 µg/mL (cucumber downy mildew; [5]) | pest or weed control at 100 µg/mL (cucumber downy mildew; [6]) | pest or weed control at 400 µg/mL (wheat powdery mildew) | inhibition at 0.3 µg/mL (cucumber gray mold) | inhibition at 0.9 µg/mL (cucumber gray mold; [7]) | inhibition at 2.8 µg/mL (cucumber gray mold; [7]) | inhibition at 8.3 µg/mL (cucumber gray mold; [8]) | inhibition at 8.3 µg/mL (cucumber gray mold; [9]) | control against pear scab (pear scab) | bacteriostatic diameter against canker of citrus fruit (canker of citrus fruit) | bacteriostatic diameter against blast of rice (blast of rice) | inhibition at 0.03 µg/mL (rice blast) | inhibition at 0.1 µg/mL (rice blast) | inhibition at 0.3 µg/mL (rice blast) | pest or weed control at 6.25 µg/mL (corn rust) | also measured
N#Cc1c(F)c(F)c(Nc2ccccc2)c(C#N)c1F [KC7] | 0% | 0% | 10% | 20% | 0% | 10% | 20% | 0% | 0% | 0% | 0% | 0% | 0% | 100% | 13.8 mm | 22.5 mm | 0% | 0% | 0% |  | 
N#Cc1c(F)c(F)c(Nc2ccc(Cl)cc2)c(C#N)c1F [KC8] | 0% | 0% | 0% | 0% |  |  |  | 0% | 0% | 0% | 0% | 0% | 0% | 90% | 0 mm | 10.2 mm | 0% | 0% | 0% | 0% | pest or weed control at 400 µg/mL (cucumber downy mildew; dose 400 mg/L): 0%; pest or weed control at 25 µg/mL (corn rust): 0%; pest or weed control at 100 µg/mL (corn rust): 0%; pest or weed control at 400 µg/mL (corn rust; [10]): 0%; pest or weed control at 400 µg/mL (corn rust; [11]): 0%
N#Cc1c(Cl)c(Cl)c(C#N)c(Nc2ccccc2)c1Cl [KC15] | 0% | 0% | 10% | 20% | 0% | 10% | 20% | 0% | 0% | 0% | 0% | 0% |  |  |  |  | 0% | 0% | 0% | 0% | activity on relevant diseases such as plasmopora viticola (plasmopora viticola): some activity; pest or weed control at 25 µg/mL (corn rust): 0%; pest or weed control at 100 µg/mL (corn rust): 0%; pest or weed control at 400 µg/mL (corn rust; [10]): 0%; pest or weed control at 400 µg/mL (corn rust; [11]): 0%; inhibition at 25 µg/mL (cucumber gray mold; in vitro, dose 25 mg/L): 0%
